Assay results published in patent US20230024537A1, “Oral Delivery Compositions for Obesity Management” (BOARD OF REGENTS, THE UNIVERSITY OF TEXAS SYSTEM, priority 2021, published 2023).
Values belong to the compound of their own block, whether it stands above or below them.

Tests used:
[1] = Beta glucan gel mediated oral delivery of nutraceuticals (absorption, pharmacokinetics)
Text: Beta-glucan compositions can be used to delivery other nutrients or therapeutic molecule via oral delivery.

[2] = system: high fat diet induced rat model; experiment: Oral delivery of anti-leptin antibody or leptin protein in high fat diet induced rat model; format: in vivo
Description: The inventors have developed an oral antibody or protein delivery platform and investigated feasibility using an anti-leptin antibody. […] The oral delivery vehicle facilitated enhancement of intestinal penetration of the antibody as well as protect the antibody from being damaged within the stomach in presence of acidic gastric juice. […] An oral dose of 5-10 μg leptin protein resulted 10-20% body weight reduction compared to the untreated high fat diet rat. […] Treated groups show less cholesterol contents in their blood which is within the normal range in opposed to the untreated animal that are observed with high cholesterol content.

high fat diet rat = experiment: Rat animal model, high fat diet with CAGE-Leptin or BG-leptin treatment (body weight, food consumption); format: in vivo
Description: Materials and Methods. Rat Animal Model. Rats are fed normal diet for 5 weeks, both male and female, body weight and food consumption is measured. Animals are fed a high fat diet for 5 weeks, body weight and food consumption is measured. Animals are fed high fat diet with CAGE-Leptin treatment for 5 weeks, body weight and food consumption is measured. Animals are fed high fat diet with BG-leptin treatment for 5 weeks, body weight and food consumption is measured.
Four groups of male were getting high fat diet for 2 weeks and then we start administer with cage, cage-leptin ab and leptin ab treatments (FIG. 3).

enhancement of pharmacokinetics ([1]; Beta glucan mediated oral delivery, compared with free oral delivery, thioctic acid tested in rat): 10-20 folds
Compound: O=C(O)CCCCC1CCSS1 (racemic) [DL-thioctic acid]

enhancement of pharmacokinetics ([1]; rat, in vivo, po): 10 folds
Compound: CC/C=C\C/C=C\C/C=C\C/C=C\C/C=C\C/C=C\CCC(=O)O [Docosahexaenoic acid, docosahexaenoic acid]

Compound: O=S(=O)([O-])[O-].[Fe+2] [iron sulfate]
constipation problem associated with oral delivery ([1]; enhanced absorption by beta glucan): mitigation of constipation problem | absorption enhanced by Beta glucan ([1]; with Beta glucan, given orally): 60%

Compound: leptin protein: Leptin protein (GenBank NP-000221), protein hormone of approx. 16 kDa formed by 146 amino acids
body weight reduction compared to untreated high fat diet rat ([2]; oral dose of 5-10 μg): 10-20% | production of anti leptin antibody ([2]; oral leptin protein): results in production anti leptin antibody | fat content in body ([2]; treated high fat diet rat): significantly less fat content | food consumption, male rat (high fat diet rat; male rats on high fat diet, versus high fat and regular diet control groups, FIG. 4 and FIG. 5): lower amount of food | body weight gain, male rat (high fat diet rat; male rats, FIG. 2): lower than regular and high fat diet male control group

enhancement of pharmacokinetics ([1]; rat, in vivo, po): 15-20 folds
Compound: vitamin B12
